pIC50: −log10 of the molar value.
Biological target: cGMP-specific 3',5'-cyclic phosphodiesterase (Homo sapiens, UniProt O76074)
Assay: Inhibition of PDE-5A (unknown origin)

| pIC50 | Structure (SMILES) |
| --- | --- |
| 5.57 | CC(C)=CCc1c(O)c2c(c3c1OC(C)(C)C=C3)CC=C(c1ccc3c(c1)OCCO3)C2=O |
| 6.30 | CC(C)=CCC1=C(O)c2c(occ(-c3ccc(O[N+](=O)[O-])cc3)c2=O)C2C=CC(C)(C)OC12 (configuration not stated) |
